Laboratory results from patent US8173634B2, “Polymorphic form of 1-(4-{1-[(E)-4-cyclohexyl-3-trifluoromethyl-benzyloxyimino]-ethyl}-2-ethyl-benzyl)-azetidine-3-carboxylic” (Novartis AG, priority 2008, dated 2012).
≈ marks a conversion by molar mass, not a printed value.

What was measured:
[1] = Intrinsic dissolution rate (Vankel punch and die, fiber optics UV at 260 nm, 200 rpm, 37°C); format: physicochemical; conditions: for Intrinsic dissolution rate: 37°C, 200 rpm
Method: (§1) The solubility and dissolution rate of the Crystalline form A of the free base of compound I prepared as described in Example 1 were tested in various solvents.
(§2) For solubility measurements, excess Form A of the free base of compound I was added to the test solvents and equilibrated for 8 days at 25° C.±0.5° C. and 4 days at 37±0.5° C. Slurries were filtered and the filtrate saved for HPLC solubility determinations. Dissolution rate measurements were carried out in 0.5 cm^2 Vankel punch and die assemblies and a pellet pressure of 2000 pounds. The dissolution was measured using fiber optics dissolution system (C technologies Inc.) and a Cary UV/VIS spectrophotometer, with a stirring rate of 200 rpm. The solution medium was held at 37±0.5° C. and the concentration measurements were made at 260 nm.

[2] = Solubility of Crystalline Form A in test solvents (excess solid equilibrated, filtrate by HPLC); format: physicochemical; conditions: for pH of final solution: 25°C solubility test; for solubility at 8 days: 25°C, equilibrated 8 days; for solubility at 4 days: 37°C, equilibrated 4 days
Method: as §1, §2

## CCc1cc(/C(C)=N/OCc2ccc(C3CCCCC3)c(C(F)(F)F)c2)ccc1CN1CC(C(=O)O)C1 [Compound I, 1-(4-{1-[(E)-4-cyclohexyl-3-trifluoromethyl-benzyloxyimino]-ethyl}-2-ethyl-benzyl)-azetidine-3-carboxylic acid]
[1]; 0.01N HCl + SDS (0.1%)
  Intrinsic dissolution rate: 0.0245 mg min^−1 cm^−2
[1]; 0.1N HCl + SDS (0.1%)
  Intrinsic dissolution rate: 0.0368 mg min^−1 cm^−2
[1]; Water + SDS (0.1%)
  Intrinsic dissolution rate: 0.0098 mg min^−1 cm^−2
[1]; summary of Table 4
  Dissolution (overall assessment): relatively quick dissolution
[2]; 0.01N HCL
  pH of final solution: 2.24
[2]; 0.01N HCl + SDS (0.1%)
  pH of final solution: 2.33
[2]; 0.1N HCl + SDS (0.1%)
  pH of final solution: 1.48
[2]; 0.1N HCl
  pH of final solution: 1.49
[2]; Phosphate buffer, pH 6.8
  pH of final solution: 7.02
[2]; Water + SDS (0.1%)
  pH of final solution: 7.02
[2]; Water
  pH of final solution: 6.28
[2]; aqueous buffer, thermodynamic from solid, Phosphate buffer, pH 6.8
  solubility at 8 days: 0.47 µg/mL (≈ 0.91 µM)
[2]; aqueous with cosolvent or surfactant or cyclodextrin, thermodynamic from solid, Acetonitrile/water (1:1 v/v)
  solubility at 8 days: > 40000 µg/mL
[2]; aqueous with cosolvent or surfactant or cyclodextrin, thermodynamic from solid, Ethanol/water (1:1 v/v)
  solubility at 8 days: 13900 µg/mL (≈ 26900 µM)
[2]; organic solvent or mixture, thermodynamic from solid, Ethanol
  solubility at 8 days: 47600 µg/mL (≈ 92100 µM)
[2]; organic solvent or mixture, thermodynamic from solid, acetonitrile
  solubility at 8 days: 610 µg/mL (≈ 1180 µM)
[2]; pH 1.48, aqueous with cosolvent or surfactant or cyclodextrin, thermodynamic from solid, 0.1N HCl + SDS (0.1%)
  solubility at 8 days: 22 µg/mL
[2]; pH 1.49, simulated gastric fluid, thermodynamic from solid, 0.1N HCl
  solubility at 8 days: 1.5 µg/mL (≈ 2.9 µM)
[2]; pH 2.24, simulated gastric fluid, thermodynamic from solid, 0.01N HCL
  solubility at 8 days: 0.6 µg/mL (≈ 1.16 µM)
[2]; pH 2.33, aqueous with cosolvent or surfactant or cyclodextrin, thermodynamic from solid, 0.01N HCl + SDS (0.1%)
  solubility at 8 days: 994 µg/mL
[2]; pH 6.28, thermodynamic from solid, Water
  solubility at 8 days: 33 µg/mL (≈ 63.9 µM)
[2]; pH 7.02, aqueous with cosolvent or surfactant or cyclodextrin, thermodynamic from solid, Water + SDS (0.1%)
  solubility at 8 days: 1190 µg/mL
[2]; simulated gastric fluid, thermodynamic from solid, 0.01N HCl
  solubility at 4 days: < 0.5 µg/mL
[2]; simulated gastric fluid, thermodynamic from solid, 0.1N HCl
  solubility at 4 days: 1.9 µg/mL (≈ 3.68 µM)
[2]; summary of Tables 2-3
  Solubility (overall assessment): good solubility
[2]; thermodynamic from solid, water
  solubility at 4 days: 106 µg/mL (≈ 205 µM)
